Values quoted from earlier work in patent US6090854A, “Aryloxyanilides and related compounds” (Bristol-Meyers Company, priority 1999, dated 2000).

Assays:
circadian rhythms = conditions: exogenous melatonin, rats; Cassone et al. 1986

## COc1ccc2[nH]cc(CCNC(C)=O)c2c1 [melatonin, N-acetyl-5-methoxytryptamine]
other
  oral bioavailability: often low and variable
Circadian rhythms
  synchronization of circadian rhythms: found to synchronize circadian rhythms in rats
